Results on seven compounds are retold here after ChEMBL document CHEMBL1147347, “Luffariolides F and G, new manoalide derivatives from the Okinawan marine sponge Luffariella sp” (J Nat Prod, 1993).

As a reminder, the IC50 is the concentration at which inhibition is half-maximal.

In brackets after ≈: the same amount, converted by molar mass.

The test system of one assay is L1210. Briefly: Cytotoxicity against mouse L1210 cells. The class given is functional, cell-based.
Assay [1] has as its system KB. The assay can be described thus: Cytotoxicity against human KB cells. It counts as functional, cell-based.
In assay [2] the test system is KB. Briefly: Growth inhibition of human KB cells at 10 ug/ml. It counts as functional. The conditions noted are these: read-out: GI.

For `CC1=C(CC/C(C)=C/CC/C(C=O)=C\C=C\C2=CC(=O)O[C@H]2O)C(C)(C)CCC1`, the IC50 with L1210 came to 0.45 µg/mL (≈ 1.13 µM); with KB [1], 2.1 µg/mL (≈ 5.27 µM).

For `CC1=C(CC/C(C)=C/CC/C(=C/C[C@H]2OC(=O)C=C2CO)CO)C(C)(C)CCC1`, the midpoint of inhibition with L1210, the IC50, lay at 1.7 µg/mL (≈ 4.22 µM). For the same compound, the inhibition of growth at 10 µg/mL in the assay on KB [2] came to 36.9%.

As to `CC1=C(CCC(C)(O)/C=C/C/C(=C/CC2OC(=O)C=C2CO)CO)C(C)(C)CCC1` (centres undefined) [LUFFARIOLIDE G], the half-inhibitory concentration (IC50) in the assay with L1210 was determined as 2.8 µg/mL (≈ 6.69 µM). In the assay on KB [2], the inhibition of growth at 10 µg/mL was determined as 30.8%.

Take `CC1=C(CC/C(C)=C/CC/C(=C/CC2OC(=O)C=C2CO)CO)C(C)(C)CCC1O` (centres undefined) [LUFFARIOLIDE F]: half-maximal inhibition in the assay with L1210 (IC50) required 1.6 µg/mL (≈ 3.82 µM). Besides, the inhibition of growth at 10 µg/mL with KB [2] was determined as 33.4%.

Consider `CC1=C(CC/C(C)=C/CC/C(C=O)=C\C[C@H]2OC(=O)C=C2CO)C(C)(C)CCC1`, for which the IC50 with L1210 is 1 µg/mL (≈ 2.5 µM); with KB [1] it was 5.6 µg/mL (≈ 14 µM).

On to `CC1=C(CC/C(C)=C/CCC2=CC[C@H](C3=CC(=O)O[C@H]3O)O[C@H]2O)C(C)(C)CCC1` [MANOALIDE], for which the figures for the IC50 with L1210 and in the assay with KB [1] were 0.032 µg/mL (≈ 0.0768 µM) and 0.31 µg/mL (≈ 0.744 µM), respectively.

The compound `CC(=O)OC/C(=C\C[C@H]1OC(=O)C=C1CO)CC/C=C(\C)CCC1=C(C)CCCC1(C)C` showed an IC50 in the assay with L1210 of 3 µg/mL (≈ 6.75 µM). Besides, in the assay with KB [2], the inhibition of growth at 10 µg/mL was 44.8%.
